According to PMC3510254 (PLoS Pathogens, 2012):
Where no end group is shown, it is not given here.

How the values were obtained:
[1] = tested on: immunoproteasome (20S); assay: purified immunoproteasome, 4 µg in the degradation experiment, in digestion buffer; conditions: human, up to 6 hours
[2] = tested on: constitutive proteasome (20S); assay: purified constitutive proteasome, 4 µg in the degradation experiment, in digestion buffer; conditions: human, up to 6 hours
[3] = tested on: proteasome; assay: Proteasome inhibition of endogenous antigen processing in vHCV 827-infected B-LCLs, IFN-γ read-out of CTL lines; assay type: cell-based, human
[4] = molecular target: T1, immunoproteasome (Homo sapiens, UniProt P28062+P28065+P40306); assay: In vitro proteasomal peptide digest with mass spectrometry; assay type: in vitro ADME; conditions: 25-mer precursor, 1, 2, 4 and 6 hours; 2 µg or 4 µg proteasome; extracted ion chromatograms; Fig 6; triplicate
T1 construct: Constitutive and immuno-20S proteasomes were purified from LCL721.174 and LCL721 human EBV-transformed B cell lines; endogenous in cells; host or cells: LCL721 human EBV-transformed B cell line

[5] = tested on: immunoproteasome (20S); assay: purified immunoproteasome in digestion buffer (20 mM HEPES-NaOH pH 7.6, 2 mM MgAc2, 0.5 mM DTT); conditions: human, up to 6 hours
[6] = tested on: constitutive proteasome (20S); assay: purified constitutive proteasome in digestion buffer (20 mM HEPES-NaOH pH 7.6, 2 mM MgAc2, 0.5 mM DTT); conditions: human, up to 6 hours

With VRVCEKMARMILMTHFPLAVMGSSY the fragment found [1] was “ARMILMTHF” and the fragment found [2] was “ARMILMTHF”.

CC[C@H](C)[C@H](NC(=O)[C@H]([C@@H](C)CC)N(C)C(C)=O)C(=O)N[C@H](C(=O)N[C@@H](CC(C)C)C(=O)[C@@]1(C)CO1)[C@@H](C)O [epoxomicin] was tested, and the “effect on induction of epitope-specific IFN-γ production and number of responding CD8+ T cells” value [3] was “delay the induction of epitope-specific IFN-γ production and considerably decrease the number of responding CD8+ T cells”.

With CC(=O)N[C@@H](CSC(=O)[C@]1([C@@H](O)C(C)C)NC(=O)[C@H](C)[C@@H]1O)C(=O)O [lactacystin] the “reductions in the number of responding CD8+ T cells” value [3] was 30–70%.

In the case of VRVCEKMARMILMTHFPLAVMGSSY [B27-in-A2], the “precursor degradation rate relative to A2-in-A2 peptide, immunoproteasomal digestion” value [4] is reported as “degraded slightly more slowly than the A2-in-A2 peptide”.

For AQTFLATCINGVCWTVYHGAGTRT, the fragment found [5] was “CINGVCWTV” and the fragment found [6] was “CINGVCWTV”.
